Data published in patent US20210221822A1, “TRICYCLIC DERIVATIVES INHIBITOR, PREPARATION METHOD, AND APPLICATIONS THEREOF” (Jiangsu Hansoh Pharmaceutical Group Co., Ltd., priority 2018, published 2021).

How the values were obtained:
PI3Kα = target: T1, PI3Kα (Homo sapiens, UniProt P42336); assay: ADP-Glo lipid kinase assay, PI3Kα kinase activity; assay type: biochemical
T1 construct: purchased Promega V1721
Outline: (§1)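 ADP-Glo luminescence measured ADP formed by PI3Kα, β, γ or δ (0.1-2 nM working solution) with PIP2:3PS (50 μM added solution) and ATP in HEPES/MgCl2/NaCl/BSA buffer, 90 to 120 min at room temperature. % inhibition was set against DMSO and no-kinase controls, and IC50 came from a four-parameter fit.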

PI3Kβ = target: T2, PI3Kβ (Homo sapiens, UniProt P42338); assay: ADP-Glo lipid kinase assay, PI3Kβ kinase activity; assay type: biochemical; details: 0.4 nM enzyme, 90 min, 100 μM ATP
T2 construct: purchased Carna 11-102
Outline: as §1

PI3Kγ = target: T3, PI3Kγ (Homo sapiens, UniProt P48736); assay: ADP-Glo lipid kinase assay, PI3Kγ kinase activity; assay type: biochemical; details: 0.4 nM enzyme, 120 min, 50 μM ATP
T3 construct: purchased Thermofisher PV4786
Outline: as §1

PI3Kδ = target: T4, PI3Kδ (Homo sapiens, UniProt O00329); assay: ADP-Glo lipid kinase assay, PI3Kδ kinase activity; assay type: biochemical; details: 0.1 nM enzyme, 90 min, 100 μM ATP
T4 construct: purchased Carna 11-103
Outline: as §1

[1] = system: PI3Kα mutant cancer cells MKN1 (E545K); assay: Cell Titer-Glo proliferation inhibition, MKN1; assay type: cell-based; details: Homo sapiens, MKN-1, 48 to 96 hours
Description: Experimental method: The proliferation inhibitory effect of the compounds of the examples on PI3Kα mutant cancer cell lines HCC1954, HGC-27 and MKN1 was determined by Cell Titer-Glo method. The cell lines were cultured in RPMI 1640 medium (Gibco #22400089) containing 10% FBS (Gibco #10091148) and 1% P/S (Hyclone #SV30010) at 37° C. and 5% CO2. Before the experiment, the cells were collected and counted, and then the cell density was adjusted. The cells were inoculated in a white 96-well plate (Corning #3610) at a density of 1000 to 10000 cells/well, and incubated in an incubator at 37° C., 5% CO2 overnight. The compound solution of different concentrations was added, and corresponding vehicle control was set at the same time. The cell plate was further incubated in an incubator at 37° C., 5% CO2 for 48 to 96 hours. The cell plate and its content were equilibrated to room temperature. 20 to 100 μL of Cell Titer-Glo solution (Promega #G7573) was added to each well, and the plate was shaked well and incubated at room temperature in the dark for 5 to 30 minutes. The chemiluminescence value was measured by the BioTek SynergyH1 microplate reader.
The percentage inhibition data of the well treated by the compounds of the examples was calculated through the vehicle control well on the plate {% inhibition rate=100−(test compound value/vehicle control value)×100}. The IC50 value was calculated by fitting the data of different concentrations and corresponding percentage inhibition rates to a four-parameter nonlinear logic formula with GraphPad prism.

HCC1954 cells = assay: In vivo efficacy test, HCC1954 tumor-bearing nude mice; set-up: species or system BALB/c nude mice; details: HCC1954 xenograft, oral 10 mg/kg once/day, 21 days (Example 51: 19 days)
Description: a. HCC1954 cells were taken from the cell bank, and resuscitated in RPMI-1640 medium (RPMI-1640+10% FBS+1% SP). The resuscitated cells were placed in a cell culture flask (the cell type, date, operator's name and the like were marked on the wall of the flask), and cultured in a CO2 incubator (the temperature of the incubator was 37° C., and the CO2 concentration was 5%).
c. The cultured cells were collected and counted with the automatic cell counter. The cells were resuspended with PBS and matrigel according to the counting results to prepare a cell suspension (density: 5×10^7/mL), which was placed in an ice box for later use.
d. The test nude mice were subjected to inoculation successively (0.1 mL of cell suspension was inoculated to each mouse).
a. According to the tumor growth, the tumor was measured on 14 to 18 days after the inoculation, and the tumor size was calculated.
Tumor volume calculation: tumor volume (mm^3)=length (mm)×width (mm)×width (mm)/2
c. According to the grouping results, the test compounds were administered (administration mode: oral administration; administration dose: 10 mg/kg;
administration volume: 10 mL/kg; administration frequency: once/day; administration cycle: 21 days; vehicle: 0.5% CMC/1% Tween 80).
d. Tumor volume and body weight were measured twice a week after the administration of test compounds began.
f. […]

T1 sequence (P42336 whole entry): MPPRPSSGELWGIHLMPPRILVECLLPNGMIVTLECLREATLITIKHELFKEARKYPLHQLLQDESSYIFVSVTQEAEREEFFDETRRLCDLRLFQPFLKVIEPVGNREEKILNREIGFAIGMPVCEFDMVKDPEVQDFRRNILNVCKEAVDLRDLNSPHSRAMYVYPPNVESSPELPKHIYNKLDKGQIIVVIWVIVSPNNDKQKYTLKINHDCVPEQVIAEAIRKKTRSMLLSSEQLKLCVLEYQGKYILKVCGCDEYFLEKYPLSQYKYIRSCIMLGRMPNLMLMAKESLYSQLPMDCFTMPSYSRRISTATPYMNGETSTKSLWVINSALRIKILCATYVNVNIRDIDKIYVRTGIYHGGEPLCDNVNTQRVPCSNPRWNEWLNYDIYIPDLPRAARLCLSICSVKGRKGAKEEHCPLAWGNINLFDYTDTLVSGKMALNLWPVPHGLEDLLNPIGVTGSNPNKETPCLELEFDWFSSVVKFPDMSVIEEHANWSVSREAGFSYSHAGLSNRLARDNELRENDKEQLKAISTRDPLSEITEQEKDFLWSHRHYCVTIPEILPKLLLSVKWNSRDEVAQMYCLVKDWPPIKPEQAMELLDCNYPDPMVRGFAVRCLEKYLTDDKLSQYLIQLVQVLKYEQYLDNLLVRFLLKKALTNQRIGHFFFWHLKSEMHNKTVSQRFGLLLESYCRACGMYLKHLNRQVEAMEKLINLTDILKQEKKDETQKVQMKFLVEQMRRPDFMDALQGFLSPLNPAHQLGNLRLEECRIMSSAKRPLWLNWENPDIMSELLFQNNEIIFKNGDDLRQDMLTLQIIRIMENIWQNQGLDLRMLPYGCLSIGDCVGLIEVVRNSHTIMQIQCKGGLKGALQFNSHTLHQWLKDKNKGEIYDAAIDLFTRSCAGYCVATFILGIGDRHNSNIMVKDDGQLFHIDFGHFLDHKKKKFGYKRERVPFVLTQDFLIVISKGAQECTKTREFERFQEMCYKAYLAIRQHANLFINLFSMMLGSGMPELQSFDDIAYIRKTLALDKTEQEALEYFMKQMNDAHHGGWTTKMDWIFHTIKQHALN
T1 sequence (P27986 whole entry partner): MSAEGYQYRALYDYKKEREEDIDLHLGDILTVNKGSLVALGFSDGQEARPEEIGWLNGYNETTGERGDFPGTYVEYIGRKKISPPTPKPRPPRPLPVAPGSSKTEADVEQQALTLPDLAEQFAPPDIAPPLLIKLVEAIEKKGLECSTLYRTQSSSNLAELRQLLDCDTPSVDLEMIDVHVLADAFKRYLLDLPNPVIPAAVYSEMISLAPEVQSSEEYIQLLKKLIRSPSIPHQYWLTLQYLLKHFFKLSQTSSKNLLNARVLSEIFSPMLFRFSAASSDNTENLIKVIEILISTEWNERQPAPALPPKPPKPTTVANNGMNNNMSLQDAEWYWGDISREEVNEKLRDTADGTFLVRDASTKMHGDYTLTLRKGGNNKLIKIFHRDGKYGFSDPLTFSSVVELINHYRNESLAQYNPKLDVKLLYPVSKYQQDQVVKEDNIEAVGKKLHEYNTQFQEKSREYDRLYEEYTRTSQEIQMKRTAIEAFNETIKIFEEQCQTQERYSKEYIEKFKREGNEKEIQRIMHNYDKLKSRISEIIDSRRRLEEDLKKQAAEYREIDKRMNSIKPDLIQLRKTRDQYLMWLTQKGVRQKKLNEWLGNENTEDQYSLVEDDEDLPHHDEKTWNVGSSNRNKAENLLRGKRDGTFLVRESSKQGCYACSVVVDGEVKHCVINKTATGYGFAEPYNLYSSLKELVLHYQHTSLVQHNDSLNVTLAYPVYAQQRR
T2 sequence (P42338 whole entry): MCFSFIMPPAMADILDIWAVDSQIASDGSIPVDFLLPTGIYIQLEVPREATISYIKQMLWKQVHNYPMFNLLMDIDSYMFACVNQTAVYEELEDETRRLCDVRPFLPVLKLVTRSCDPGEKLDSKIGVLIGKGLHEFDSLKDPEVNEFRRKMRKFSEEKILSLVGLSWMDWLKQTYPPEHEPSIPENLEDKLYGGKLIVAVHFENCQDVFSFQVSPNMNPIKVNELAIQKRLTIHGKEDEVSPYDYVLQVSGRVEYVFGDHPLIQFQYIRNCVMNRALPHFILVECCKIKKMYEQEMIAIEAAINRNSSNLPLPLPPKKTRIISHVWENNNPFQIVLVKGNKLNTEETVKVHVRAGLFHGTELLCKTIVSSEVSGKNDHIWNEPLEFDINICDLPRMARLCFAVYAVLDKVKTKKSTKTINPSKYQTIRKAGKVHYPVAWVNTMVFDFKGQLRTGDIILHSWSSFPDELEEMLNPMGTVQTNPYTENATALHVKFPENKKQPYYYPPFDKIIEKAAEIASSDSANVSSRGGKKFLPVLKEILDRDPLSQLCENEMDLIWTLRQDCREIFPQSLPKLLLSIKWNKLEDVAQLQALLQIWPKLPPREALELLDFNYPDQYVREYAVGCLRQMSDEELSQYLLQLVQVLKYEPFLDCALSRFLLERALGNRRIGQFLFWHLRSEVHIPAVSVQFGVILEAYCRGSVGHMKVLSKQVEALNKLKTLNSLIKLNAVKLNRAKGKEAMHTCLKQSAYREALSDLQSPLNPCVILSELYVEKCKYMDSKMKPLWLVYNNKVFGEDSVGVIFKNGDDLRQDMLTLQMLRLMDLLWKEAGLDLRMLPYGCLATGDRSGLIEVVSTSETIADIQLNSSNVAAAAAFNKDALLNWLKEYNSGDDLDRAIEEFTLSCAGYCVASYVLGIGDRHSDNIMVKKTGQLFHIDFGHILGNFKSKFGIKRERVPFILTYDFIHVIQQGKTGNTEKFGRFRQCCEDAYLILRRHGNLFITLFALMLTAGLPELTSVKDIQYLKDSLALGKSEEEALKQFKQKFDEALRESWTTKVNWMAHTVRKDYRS
T2 sequence (P27986 whole entry partner): as the sequence (P27986 whole entry partner) above
T3 sequence (P48736 whole entry): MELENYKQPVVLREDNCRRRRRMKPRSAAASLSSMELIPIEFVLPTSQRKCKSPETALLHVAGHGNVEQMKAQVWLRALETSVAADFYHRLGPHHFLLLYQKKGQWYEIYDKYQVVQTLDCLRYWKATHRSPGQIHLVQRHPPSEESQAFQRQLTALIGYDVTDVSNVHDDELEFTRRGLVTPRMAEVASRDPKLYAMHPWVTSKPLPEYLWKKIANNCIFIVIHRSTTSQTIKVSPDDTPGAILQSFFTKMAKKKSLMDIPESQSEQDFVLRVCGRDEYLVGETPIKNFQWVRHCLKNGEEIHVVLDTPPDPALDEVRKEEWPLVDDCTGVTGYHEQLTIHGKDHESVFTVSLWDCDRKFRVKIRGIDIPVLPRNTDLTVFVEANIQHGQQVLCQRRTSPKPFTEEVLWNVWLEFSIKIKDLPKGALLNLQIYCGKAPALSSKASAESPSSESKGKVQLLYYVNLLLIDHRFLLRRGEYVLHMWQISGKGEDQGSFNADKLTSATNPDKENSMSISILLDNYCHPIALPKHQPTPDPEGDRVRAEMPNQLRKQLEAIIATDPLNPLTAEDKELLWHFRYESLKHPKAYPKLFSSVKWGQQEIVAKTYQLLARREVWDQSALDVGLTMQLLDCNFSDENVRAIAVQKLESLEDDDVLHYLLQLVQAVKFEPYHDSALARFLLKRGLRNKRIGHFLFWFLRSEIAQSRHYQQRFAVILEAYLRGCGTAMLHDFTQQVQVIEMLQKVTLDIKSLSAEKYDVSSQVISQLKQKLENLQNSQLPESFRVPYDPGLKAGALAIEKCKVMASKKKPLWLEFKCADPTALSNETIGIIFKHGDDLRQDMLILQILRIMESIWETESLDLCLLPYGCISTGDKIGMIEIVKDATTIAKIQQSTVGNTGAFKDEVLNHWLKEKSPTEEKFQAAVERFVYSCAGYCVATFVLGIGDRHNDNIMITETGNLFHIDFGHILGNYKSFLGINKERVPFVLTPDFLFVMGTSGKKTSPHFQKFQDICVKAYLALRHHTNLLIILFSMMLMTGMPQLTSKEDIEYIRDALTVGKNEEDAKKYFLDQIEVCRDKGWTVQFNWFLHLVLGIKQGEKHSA
T4 sequence (O00329 whole entry): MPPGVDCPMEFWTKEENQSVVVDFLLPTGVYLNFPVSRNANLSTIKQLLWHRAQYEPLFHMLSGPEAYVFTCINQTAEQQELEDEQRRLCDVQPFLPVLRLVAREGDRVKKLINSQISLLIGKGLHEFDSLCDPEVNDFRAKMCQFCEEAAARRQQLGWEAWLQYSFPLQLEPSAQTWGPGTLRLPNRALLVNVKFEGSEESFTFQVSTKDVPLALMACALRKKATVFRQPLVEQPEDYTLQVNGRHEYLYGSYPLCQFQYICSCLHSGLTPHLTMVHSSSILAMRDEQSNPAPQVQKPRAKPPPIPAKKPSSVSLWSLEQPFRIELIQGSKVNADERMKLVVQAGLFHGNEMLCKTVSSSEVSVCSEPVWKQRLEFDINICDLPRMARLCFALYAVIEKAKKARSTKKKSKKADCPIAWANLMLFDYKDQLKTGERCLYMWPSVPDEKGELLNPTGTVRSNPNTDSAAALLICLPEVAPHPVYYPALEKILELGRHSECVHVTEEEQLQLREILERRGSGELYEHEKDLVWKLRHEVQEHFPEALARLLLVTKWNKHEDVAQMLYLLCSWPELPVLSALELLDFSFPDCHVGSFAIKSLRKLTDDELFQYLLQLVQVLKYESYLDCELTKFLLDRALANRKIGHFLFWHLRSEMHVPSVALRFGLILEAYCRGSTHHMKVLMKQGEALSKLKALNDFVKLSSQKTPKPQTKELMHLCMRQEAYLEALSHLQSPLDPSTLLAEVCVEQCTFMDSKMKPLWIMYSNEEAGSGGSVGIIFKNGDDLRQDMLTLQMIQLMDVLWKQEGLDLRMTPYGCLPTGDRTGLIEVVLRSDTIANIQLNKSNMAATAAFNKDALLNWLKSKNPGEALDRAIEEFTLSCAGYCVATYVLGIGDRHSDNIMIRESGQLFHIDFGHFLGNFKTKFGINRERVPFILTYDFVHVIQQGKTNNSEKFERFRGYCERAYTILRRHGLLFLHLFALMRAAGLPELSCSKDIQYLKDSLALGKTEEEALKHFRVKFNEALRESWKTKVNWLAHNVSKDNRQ
T4 sequence (P27986 whole entry partner): as the sequence (P27986 whole entry partner) above

- IC50 (PI3Kα; ADP-Glo, 0.1 nM enzyme, 120 min, 50 μM ATP): 0.38 nM
- Selectivity of PI3Kα vs PI3Kβ (PI3Kα; ratio of IC50 PI3Kβ to IC50 PI3Kα): 521
- Selectivity of PI3Kα vs PI3Kγ (PI3Kα; ratio of IC50 PI3Kγ to IC50 PI3Kα): 208
- Selectivity of PI3Kα vs PI3Kδ (PI3Kα; ratio of IC50 PI3Kδ to IC50 PI3Kα): 63
- IC50 (PI3Kβ): 198 nM
- IC50 (PI3Kγ): 79 nM
- IC50 (PI3Kδ): 24 nM
- IC50 [1]: 113 nM
Compound: C[C@H](Nc1ccc2c(c1)OCCn1cc(N3C(=O)COC[C@H]3C(F)F)nc1-2)C(N)=O [Example 68, (S)-2-((2-((S)-3-(difluoromethyl)-5-oxomorpholino)-5,6-dihydrobenzo[f]imidazo[1,2-d][1,4]oxazepin-9-yl)amino)propanamide]
- Tumor growth inhibition rate (HCC1954 cells): 78%
